Results taken from paper PMC7044277 (Nature Communications, 2020).
Where “and” joins values, the source holds several entries; their conditions need not be identical. Equal values may be shown once.

Legend:
Assay type in all cases: cell-based
320 non-olfactory GPCRs [1] = molecular target: T1, 320 non-olfactory GPCRs (Homo sapiens, UniProt Q02643)
T1 construct: expressed in transfected cells; host or cells: HTLA cells

320 non-olfactory GPCRs [2] = molecular target: 320 non-olfactory GPCRs (Homo sapiens, UniProt Q96PE1)
Chain of 320 non-olfactory GPCRs (Homo sapiens, UniProt Q96PE1) (Q96PE1 34-1338): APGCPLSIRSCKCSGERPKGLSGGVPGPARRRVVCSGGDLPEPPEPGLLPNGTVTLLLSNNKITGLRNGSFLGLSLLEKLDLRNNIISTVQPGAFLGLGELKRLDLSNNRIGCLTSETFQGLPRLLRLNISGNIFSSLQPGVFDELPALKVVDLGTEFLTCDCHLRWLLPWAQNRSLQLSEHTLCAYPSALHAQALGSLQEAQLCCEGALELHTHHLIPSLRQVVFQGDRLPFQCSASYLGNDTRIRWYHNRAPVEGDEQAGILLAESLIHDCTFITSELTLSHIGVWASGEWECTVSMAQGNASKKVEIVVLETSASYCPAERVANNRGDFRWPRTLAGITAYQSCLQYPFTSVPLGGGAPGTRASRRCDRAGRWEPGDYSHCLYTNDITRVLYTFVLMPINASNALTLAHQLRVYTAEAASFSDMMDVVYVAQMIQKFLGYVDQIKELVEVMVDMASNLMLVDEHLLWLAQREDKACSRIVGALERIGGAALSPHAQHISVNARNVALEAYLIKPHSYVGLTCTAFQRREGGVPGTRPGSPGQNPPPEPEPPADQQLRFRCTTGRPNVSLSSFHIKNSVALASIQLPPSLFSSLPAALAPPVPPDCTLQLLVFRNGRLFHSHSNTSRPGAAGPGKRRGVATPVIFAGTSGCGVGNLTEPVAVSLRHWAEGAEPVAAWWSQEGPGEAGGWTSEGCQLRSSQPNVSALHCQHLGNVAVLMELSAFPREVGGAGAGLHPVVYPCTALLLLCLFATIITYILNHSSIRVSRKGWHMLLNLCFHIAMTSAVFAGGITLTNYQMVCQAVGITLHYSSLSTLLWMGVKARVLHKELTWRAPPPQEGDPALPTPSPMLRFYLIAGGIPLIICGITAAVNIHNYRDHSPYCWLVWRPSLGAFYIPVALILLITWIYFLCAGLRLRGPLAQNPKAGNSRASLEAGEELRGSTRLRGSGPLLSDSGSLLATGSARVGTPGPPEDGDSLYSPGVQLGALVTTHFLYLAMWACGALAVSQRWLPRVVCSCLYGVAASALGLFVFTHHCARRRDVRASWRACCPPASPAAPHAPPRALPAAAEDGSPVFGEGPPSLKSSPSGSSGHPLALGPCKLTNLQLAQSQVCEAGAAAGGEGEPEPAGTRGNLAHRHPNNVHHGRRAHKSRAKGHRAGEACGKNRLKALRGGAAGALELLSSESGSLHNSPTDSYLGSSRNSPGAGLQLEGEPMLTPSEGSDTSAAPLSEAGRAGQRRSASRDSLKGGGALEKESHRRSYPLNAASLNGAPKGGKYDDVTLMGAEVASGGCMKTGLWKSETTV

320 non-olfactory GPCRs [3] = molecular target: T2, 320 non-olfactory GPCRs (Homo sapiens, UniProt Q9H244); settings: receptor P2RY12; replicate values, Fig_4g
T2 construct: expressed in transfected cells; host or cells: HTLA cells
T2 sequence (Q9H244 whole entry): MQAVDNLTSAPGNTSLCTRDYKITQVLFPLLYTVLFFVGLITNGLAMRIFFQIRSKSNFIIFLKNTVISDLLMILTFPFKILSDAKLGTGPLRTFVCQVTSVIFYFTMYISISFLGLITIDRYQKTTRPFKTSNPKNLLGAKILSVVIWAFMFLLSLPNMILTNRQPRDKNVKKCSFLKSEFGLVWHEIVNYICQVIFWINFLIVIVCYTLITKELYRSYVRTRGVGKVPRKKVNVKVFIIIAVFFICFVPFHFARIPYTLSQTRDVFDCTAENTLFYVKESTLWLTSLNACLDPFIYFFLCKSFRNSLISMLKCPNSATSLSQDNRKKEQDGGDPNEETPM

320 non-olfactory GPCRs [4] = molecular target: T3, 320 non-olfactory GPCRs (Homo sapiens, UniProt O14842)
T3 construct: expressed in transfected cells; host or cells: HTLA cells
T3 sequence (O14842 whole entry): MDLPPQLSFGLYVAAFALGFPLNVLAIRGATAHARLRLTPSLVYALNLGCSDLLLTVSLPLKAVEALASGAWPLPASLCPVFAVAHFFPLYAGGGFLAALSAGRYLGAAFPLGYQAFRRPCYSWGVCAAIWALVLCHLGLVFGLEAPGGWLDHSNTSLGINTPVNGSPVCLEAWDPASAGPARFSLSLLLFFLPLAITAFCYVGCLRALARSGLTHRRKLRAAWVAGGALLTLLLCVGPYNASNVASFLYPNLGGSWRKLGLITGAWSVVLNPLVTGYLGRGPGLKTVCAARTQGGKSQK
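Throughout, for Fold of Basal: compound tested at 1 µM final concentration.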
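Throughout, for GPCRome agonism screen response: fold over basal response of each receptor without drug.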

T1 sequence (Q02643 23-423): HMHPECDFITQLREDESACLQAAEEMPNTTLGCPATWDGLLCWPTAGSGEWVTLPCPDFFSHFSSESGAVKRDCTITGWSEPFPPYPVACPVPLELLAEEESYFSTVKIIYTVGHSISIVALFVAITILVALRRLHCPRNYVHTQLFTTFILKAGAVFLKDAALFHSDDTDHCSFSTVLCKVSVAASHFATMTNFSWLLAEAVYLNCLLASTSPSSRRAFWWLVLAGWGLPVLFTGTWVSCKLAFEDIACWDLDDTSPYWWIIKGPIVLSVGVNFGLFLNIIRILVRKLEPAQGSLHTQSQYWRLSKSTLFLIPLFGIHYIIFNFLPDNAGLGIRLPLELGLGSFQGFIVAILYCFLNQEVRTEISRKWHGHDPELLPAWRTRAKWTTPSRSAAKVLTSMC

CCOc1cccc2cc(C(C)NCC3(O)CCCCC3)oc12 (stereo not shown) [O4LE6]
Fold of Basal (320 non-olfactory GPCRs [1]): 1.559 and 1.547 and 1.735 and 1.472 | Fold of Basal (320 non-olfactory GPCRs [2]): 1.7314 and 1.927 and 1.697 and 1.27 | GPCRome agonism screen response (320 non-olfactory GPCRs [3]): 1.331 and 0.8524 and 1.417 and 1.455 | Fold of Basal (320 non-olfactory GPCRs [4]): 1.069 and 1.057 and 1.21 and 0.9963
